{"source": "patent US11433036B2", "about": "“Oxprenolol compositions for treating cancer” (priority 2013, dated 2022)", "key": {"[1]": {"system": "Yoshida Hepatoma Model", "test": "Survival in Yoshida hepatoma model", "format": "in vivo, male Wistar rats", "excerpt": "(§1) Ascites hepatoma Yoshida AH-130 cells (10^3 cells) were inoculated into about 200 gram male Wistar rats by i.p. injection. Alternatively animals received saline injection only (sham). The day after inoculation animals were randomized into various groups and then received twice daily treatment with either placebo or various test compositions by oral gavage over a period of up to 17 days. The primary endpoints of the study included assessment of body weight, body composition (with and without tumor), and survival. Body composition was monitored by NMR. Echocardiography was used in instances to monitor condition of the heart. Organ weight was assessed at the end of the study (or after death) as a secondary endpoint. In addition, locomotor activity and food intake were also assessed. FIG. 1 provides a diagram showing the design study. R- and S-oxprenolol were manufactured to order by Peakdale Molecular, Peakdale Science Park, Sheffield Road. Chapel-en-le-Frith, High Peak SK23 0PG, UK\nTo study the effect of S-oxprenolol and R-oxprenolol on survival, survival was monitored over time."}, "[2]": {"system": "Yoshida Hepatoma Model", "excerpt": "as §1\nTo study the effect of the test compounds on body weight, body weight was monitored over time.\nTo study the effect of the test compounds as mixtures of enantiomers on body weight, body weight was monitored over time."}, "[3]": {"system": "Yoshida Hepatoma Model", "excerpt": "as §1\nTo study the effect of the test compounds on lean body mass, lean mass was determined at the end of the study.\nTo study the effect of the test compounds as mixtures of enantiomers on lean body mass, lean mass was determined at the end of the study.", "remark": "listed apart in the source"}, "[4]": {"system": "Yoshida Hepatoma Model", "details": "5, 12.5, 25 or 50 mg/kg/day; end of study; FIGS. 13A-13D", "excerpt": "as §1\nTo study the effect of the test compounds on skeletal muscle atrophy and heart weight, the skeletal muscle mass and heart weight were determined at the end of the study."}, "[5]": {"system": "Yoshida Hepatoma Model", "excerpt": "as §1\nTo study the effect of the test compounds on fat mass, the fat mass were determined at the end of the study.\nTo study the effect of the test compounds as mixtures of enantiomers on fat mass, the fat mass were determined at the end of the study.", "remark": "listed apart in the source"}, "[6]": {"system": "Yoshida Hepatoma Model", "details": "Day 11; for food intake: FIG. 17; for locomotor activity: FIG. 18", "excerpt": "as §1\nTo study the effect of the test compounds on quality of life, parameters of quality of life such as food intake and locomotor activity were assessed at Day 11."}, "[7]": {"system": "Yoshida Hepatoma Model", "details": "5, 12.5, 25 or 50 mg/kg/day vs placebo; end of study; FIGS. 19A and 19B", "excerpt": "as §1\nTo study the effect of the test compounds on tumor growth, tumor growth was assessed at the end of the study."}, "[8]": {"system": "B16V (melanoma)", "details": "B16V cells; BrdU incorporation and XTT assay; FIG. 20", "method": "(§2) The effect of the test compounds on tumor growth was also evaluated in an in vitro experiment with various tumor cells, namely, Kelly (neuroblastoma), Hela-93 (cervix carcinoma), and B16V (melanoma). Cell growth was assessed by BrdU incorporation (left of FIG. 20) and XTT assay (right of FIG. 20). Doxorubicin was used as a positive control."}, "[9]": {"system": "Hela-93 (cervix carcinoma)", "details": "Hela-93 cells; BrdU incorporation and XTT assay; FIG. 20", "method": "as §2"}, "[10]": {"system": "Kelly (neuroblastoma)", "details": "Kelly cells; BrdU incorporation and XTT assay; FIG. 20", "method": "as §2"}, "[11]": {"details": "5 mg/kg/day or 25 mg/kg/day vs placebo"}, "[12]": {"details": "25 mg/kg/day S-oxprenolol vs same amount of R-oxprenolol"}}, "note": "Entries after “also recorded” stand apart in the source; their conditions may differ. Like-named read-outs stand apart in the source and are kept apart here.", "data": [{"smiles": "C=CCOc1ccccc1OC[C@@H](O)CNC(C)C", "note": "[S-oxprenolol, (S)-(−)-oxprenolol]", "values": [{"measurement": "percent survival", "setting": "[1]; 25 mg/kg/day or 50 mg/kg/day, oral gavage twice daily, up to 17 days, FIG. 2", "result": "longer survival than those in the placeo group or those receiving R-oxprenolol"}, {"measurement": "percent survival", "setting": "[1]; S-oxprenolol 20 mg/kg/day vs racemic mixture 40 mg/kg/day (same amount of S-oxprenolol), FIG. 3", "result": "longer survival than those receiving the racemic mixture; also recorded: had an improved effect on survival than the racemic mixture"}, {"measurement": "percent survival, comparison of dosages", "setting": "[1]; S-oxprenolol 5, 12.5, 25, 50, 70 or 100 mg/kg/day, FIGS. 4 and 5", "result": "50 mg/kg/day S-oxprenolol had the best effect on survival among all dosages tested"}, {"measurement": "percent survival", "setting": "[1]; S-oxprenolol vs placebo or S-pindolol 3 mg/kg/day, FIG. 4", "result": "significantly superior to either placebo or S-pindolol at its preferred dose"}, {"measurement": "survival", "setting": "[1]; animal inoculated with hepatocellular carcinoma cells, summary statement", "result": "significantly improved survival in animals having cancer"}, {"measurement": "change of body weight", "setting": "[2]; 5, 12.5, 25 or 50 mg/kg/day, FIG. 7", "result": "less body weight loss than those in the placebo group and those administered with R-oxprenolol"}, {"measurement": "change in body weight", "setting": "[2]; S-oxprenolol 20 mg/kg/day vs racemic mixture 40 mg/kg/day, FIG. 8", "result": "less body weight loss than those receiving the racemic mixture"}, {"measurement": "change in body weight, comparison of dosages", "setting": "[2]; S-oxprenolol 12.5, 25, 50, 70 or 100 mg/kg/day, FIG. 9", "result": "rats receiving 50 mg/kg/day or 100 mg/kg/day of the S-oxprenolol had the least body weight loss"}, {"measurement": "change in lean body mass", "setting": "[3]; 5, 12.5, 25 or 50 mg/kg/day, FIG. 10", "result": "rats receiving S-oxprenolol at doses of 12.5 mg/kg/day or higher had less change in lean body mass than those receiving R-oxprenolol"}, {"measurement": "change in lean body mass", "setting": "[3]; S-oxprenolol 20 mg/kg/day vs racemic mixture 40 mg/kg/day, FIG. 11A", "result": "less change in lean body weight than those receiving the racemic mixture"}, {"measurement": "change in lean body mass/days alive", "setting": "[3]; S-oxprenolol 20 mg/kg/day vs racemic mixture 40 mg/kg/day, FIG. 11B", "result": "less change in lean body mass than those receiving the racemic mixture"}, {"measurement": "change in lean body mass, comparison of dosages", "setting": "[3]; S-oxprenolol 12.5, 25, 50, 70 or 100 mg/kg/day, FIG. 12A", "result": "rats receiving 100 mg/kg/day of S-oxprenolol had the least change in lean body mass compared to rats receiving other doses"}, {"measurement": "change in lean body mass/days alive, comparison of dosages", "setting": "[3]; S-oxprenolol 12.5, 25, 50, 70 or 100 mg/kg/day, FIG. 12B", "result": "rats receiving 100 mg/kg/day of S-oxprenolol had the least change in lean body mass/days alive compared to rats receiving other doses"}, {"measurement": "mass of skeletal muscle (gastrocnemius, tibialis anterior, soleus, EDL)", "setting": "[4]", "result": "reduces wasting of individual hind limb muscles independent of their composition of slow and fast twitch muscle fibers"}, {"measurement": "change in fat mass", "setting": "[5]; 5, 12.5, 25 or 50 mg/kg/day, FIG. 14", "result": "rats receiving S-oxprenolol at 12.5 mg/kg/day or higher had less fat mass loss than those in the placebo group or those receiving R-oxprenolol"}, {"measurement": "weight of white adipose tissue (WAT)", "setting": "[5]; 5, 12.5, 25 or 50 mg/kg/day, FIG. 15A", "result": "better effects in reducing fat wasting than R-oxprenolol"}, {"measurement": "weight of brown adipose tissue (BAT)", "setting": "[5]; 5, 12.5, 25 or 50 mg/kg/day, FIG. 15B", "result": "both enantiomers of oxprenolol protect BAT mass"}, {"measurement": "weight of white adipose tissue (WAT)", "setting": "[5]; S-oxprenolol 20 mg/kg/day vs racemic mixture 40 mg/kg/day, FIG. 16A", "result": "significantly better effect in preserving the white adipose tissue than those receiving the racemic mixture"}, {"measurement": "weight of brown adipose tissue (BAT)", "setting": "[5]; S-oxprenolol 20 mg/kg/day vs racemic mixture 40 mg/kg/day, FIG. 16B", "result": "better effect in preserving the brown adipose tissue than those receiving the racemic mixture"}, {"measurement": "food intake", "setting": "[6]; [11]", "result": "higher food intake than those in the placebo group"}, {"measurement": "locomotor activity", "setting": "[6]; [11]", "result": "higher locomotive activity than those in the placebo group"}, {"measurement": "food intake", "setting": "[6]; [12]", "result": "higher food intake than those receiving the same amount of R-oxprenolol"}, {"measurement": "locomotor activity", "setting": "[6]; [12]", "result": "higher locomotive activity than those receiving the same amount of R-oxprenolol"}, {"measurement": "tumor growth (tumor volume, total number of cells in a tumor)", "setting": "[7]", "result": "did not have any significant effects on tumor growth compared to those in the placebo group"}, {"measurement": "tumor cell proliferation", "setting": "[8]", "result": "neither S-oxprenolol nor R-oxprenolol showed any inhibitor effects on tumor cell proliferation"}, {"measurement": "tumor cell proliferation", "setting": "[9]", "result": "neither S-oxprenolol nor R-oxprenolol showed any inhibitor effects on tumor cell proliferation"}, {"measurement": "tumor cell proliferation", "setting": "[10]", "result": "neither S-oxprenolol nor R-oxprenolol showed any inhibitor effects on tumor cell proliferation"}]}]}
